Read-outs that look alike come from different tables or passages of the source. Numbered stars: 1 amine (or outer) side, 2 acyl side, 3 side chain; on linkers, the order of the positions; unused ones are H or OH. Bridge positions count the residues as written; N and C are the ends. Square brackets hold non-standard residues; d marks the D form. Peptide text beside a SMILES is read from it. * marks the point of attachment. TBMB(SCH2CH2NH-DOTA) = O=C(O)CN1CCN(CC(=O)O)CCN(CC(=O)NCCSCc2cc(C[*:1])cc(C[*:2])c2)CCN(CC(=O)O)CC1; X1 = O=C(O)CN1CCN(CC(=O)O)CCN(CC(=O)NCCSCc2cc(C[*:1])cc(C[*:2])c2)CC1; Phe(2-CF3) = N[C@@H](Cc1ccccc1C(F)(F)F)C(=O)O; Pro(trans-4-F) = O=C(O)[C@@H]1C[C@@H](F)CN1; Phe(3-F) = N[C@@H](Cc1cccc(F)c1)C(=O)O; Phe(4-F) = N[C@@H](Cc1ccc(F)cc1)C(=O)O; Phe(2-F) = N[C@@H](Cc1ccccc1F)C(=O)O; Hyp = O=C(O)[C@@H]1C[C@@H](O)CN1; Hexanoyl = CCCCCC(=O)*; Aib = CC(C)(N)C(=O)O
Legend:
U-87 MG cells = details: mouse, in vivo; for Tumour/kidney: B-NDG, iv
Experimental: (§1) Experimental animals: Germline: B-NDG (Biocytogen Jiangsu Co., Ltd.); Age: 5-8 weeks old; Body weight: 20-24 g.
(§2) A sufficient quantity of U-87 MG cells was prepared and inoculated into the posterior position of the right forelimb of B-NDG mice in an inoculation volume of 100 µl, containing 50% Matrigel and 5 × 10^6 cells. After inoculation, the tumour volume and animal body weight were monitored twice a week. Model mice with a tumour volume between 200 and 500 m^3 were selected for enrolment in this experiment and randomly grouped on the basis of tumour volume.

FAPα = biological target: T1, FAPα (Homo sapiens, UniProt Q12884); assay: FAPα enzyme activity test; assay type: biochemical; details: substrate Z-Gly-Pro-AMC, 37°C
T1 sequence (Q12884 1-760): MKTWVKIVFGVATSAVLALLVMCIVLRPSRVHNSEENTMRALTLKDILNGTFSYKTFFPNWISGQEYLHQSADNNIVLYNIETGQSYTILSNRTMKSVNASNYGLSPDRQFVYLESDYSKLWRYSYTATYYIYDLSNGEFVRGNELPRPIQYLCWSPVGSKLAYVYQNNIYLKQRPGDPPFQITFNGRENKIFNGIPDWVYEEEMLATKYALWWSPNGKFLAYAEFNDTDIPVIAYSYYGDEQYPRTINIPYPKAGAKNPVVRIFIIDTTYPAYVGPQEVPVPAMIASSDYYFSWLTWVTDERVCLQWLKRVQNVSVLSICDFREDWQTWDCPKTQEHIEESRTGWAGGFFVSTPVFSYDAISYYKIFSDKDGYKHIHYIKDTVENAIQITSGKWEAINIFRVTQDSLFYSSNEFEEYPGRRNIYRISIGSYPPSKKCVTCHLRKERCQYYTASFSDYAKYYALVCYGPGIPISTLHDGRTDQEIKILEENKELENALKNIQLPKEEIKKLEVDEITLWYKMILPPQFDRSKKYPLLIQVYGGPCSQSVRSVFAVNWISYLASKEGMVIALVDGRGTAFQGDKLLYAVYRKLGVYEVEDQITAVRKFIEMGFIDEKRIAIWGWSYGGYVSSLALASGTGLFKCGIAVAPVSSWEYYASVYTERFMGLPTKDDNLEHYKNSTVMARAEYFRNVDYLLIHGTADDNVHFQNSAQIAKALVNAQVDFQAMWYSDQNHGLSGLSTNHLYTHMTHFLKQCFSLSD
Experimental: The substrate (Z-Gly-Pro-AMC) was diluted with DMSO to prepare a 0.5 mM stock solution. Before each experiment, the 0.5 mM stock solution was diluted with PBS to 50 µM for later use. The FAPα protein was diluted with PBS to 0.5 ng/µl for later use. […] The test compounds and positive control were subjected to a 5-fold serial dilution with PBS to obtain 8 gradients for later use, with the highest concentration being 10 µM, and the lowest concentration being […]. Test method: 85 µl of the FAPα dilution and 10 µl of the compound dilution were added to a microplate, uniformly mixed and incubated at 37°C for 10 min. Then, 5 µl of 50 µM substrate was added, uniformly mixed and incubated at 37°C for 10 min. The microplate was read on a microplate reader, with an excitation wavelength of 380 nm and an emission wavelength of 465 nm.

in vivo = details: B-NDG, mouse, iv, total radioactivity, Tumour/kidney
Experimental: as §1, §2

Q: Which Tumour/kidney (U-87 MG cells; 0.5 h) does the source give for CCCCCC(=O)N[C@H]1CSCc2cc(CSCCNC(=O)CN3CCN(CC(=O)O)CCN(CC(=O)O)CC3)cc(c2)CSC[C@@H](C(=O)O)NC(=O)[C@H](Cc2ccccc2)NC(=O)[C@H](CCC(N)=O)NC(=O)[C@H]([C@@H](C)O)NC(=O)[C@@H]2CCCN2C(=O)[C@@H]2CCCN2C1=O [Al^18F-NOTA-2286, reference compound] here?
A: 2.57±0.09

Q: And the Tumour/kidney (U-87 MG cells; 1.5 h)?
A: 11.24±1.79

Q: What about the Tumour/kidney (U-87 MG cells; 3 h) of the same compound?
A: 10.06±1.60

Q: Which IC50 (FAPα) does the source give for CCCCCC(=O)N[C@H]1CSCc2cc(CSCCNC(=O)CN3CCN(CC(=O)O)CCN(CC(=O)O)CCN(CC(=O)O)CC3)cc(c2)CSC[C@@H](C(=O)O)NC(=O)[C@H](Cc2ccccc2)NC(=O)[C@H](CCC(N)=O)NC(=O)[C@H]([C@@H](C)O)NC(=O)[C@@H]2C[C@@H](O)CN2C(=O)[C@@H]2CCCN2C(=O)C(C)(C)NC1=O [DOTA-05] (Hexanoyl-C[Aib]P[Hyp]TQFC-OH; linker 1-8 via TBMB(SCH2CH2NH-DOTA)) here?
A: 1.16 nM

Q: With CCCCCC(=O)N[C@H]1CSCc2cc(CSCCNC(=O)CN3CCN(CC(=O)O)CCN(CC(=O)O)CCN(CC(=O)O)CC3)cc(c2)CSC[C@@H](C(=O)O)NC(=O)[C@H](Cc2ccccc2F)NC(=O)[C@H](CCC(N)=O)NC(=O)[C@H]([C@@H](C)O)NC(=O)[C@@H]2C[C@@H](O)CN2C(=O)[C@@H]2CCCN2C(=O)C(C)(C)NC1=O [DOTA-06] (Hexanoyl-C[Aib]P[Hyp]TQ[Phe(2-F)]C-OH; linker 1-8 via TBMB(SCH2CH2NH-DOTA)) as the compound, how does the IC50 (FAPα) read?
A: 0.93 nM

Q: Which IC50 (FAPα) does the source give for CCCCCC(=O)N[C@H]1CSCc2cc(CSCCNC(=O)CN3CCN(CC(=O)O)CCN(CC(=O)O)CCN(CC(=O)O)CC3)cc(c2)CSC[C@@H](C(=O)O)NC(=O)[C@H](Cc2cccc(F)c2)NC(=O)[C@H](CCC(N)=O)NC(=O)[C@H]([C@@H](C)O)NC(=O)[C@@H]2C[C@@H](O)CN2C(=O)[C@@H]2CCCN2C(=O)C(C)(C)NC1=O [DOTA-07] (Hexanoyl-C[Aib]P[Hyp]TQ[Phe(3-F)]C-OH; linker 1-8 via TBMB(SCH2CH2NH-DOTA)) here?
A: 1.5 nM

Q: For CCCCCC(=O)N[C@H]1CSCc2cc(CSCCNC(=O)CN3CCN(CC(=O)O)CCN(CC(=O)O)CCN(CC(=O)O)CC3)cc(c2)CSC[C@@H](C(=O)O)NC(=O)[C@H](Cc2ccc(F)cc2)NC(=O)[C@H](CCC(N)=O)NC(=O)[C@H]([C@@H](C)O)NC(=O)[C@@H]2C[C@@H](O)CN2C(=O)[C@@H]2CCCN2C(=O)C(C)(C)NC1=O [DOTA-08] (Hexanoyl-C[Aib]P[Hyp]TQ[Phe(4-F)]C-OH; linker 1-8 via TBMB(SCH2CH2NH-DOTA)), which IC50 (FAPα) is on record?
A: 0.53 nM

Q: Which IC50 (FAPα) does the source give for CCCCCC(=O)N[C@H]1CSCc2cc(CSCCNC(=O)CN3CCN(CC(=O)O)CCN(CC(=O)O)CCN(CC(=O)O)CC3)cc(c2)CSC[C@@H](C(=O)O)NC(=O)[C@H](Cc2ccccc2C(F)(F)F)NC(=O)[C@H](CCC(N)=O)NC(=O)[C@H]([C@@H](C)O)NC(=O)[C@@H]2C[C@@H](O)CN2C(=O)[C@@H]2CCCN2C(=O)C(C)(C)NC1=O [DOTA-09] (Hexanoyl-C[Aib]P[Hyp]TQ[Phe(2-CF3)]C-OH; linker 1-8 via TBMB(SCH2CH2NH-DOTA)) here?
A: 0.28 nM

Q: Which IC50 (FAPα) does the source give for CCCCCC(=O)N[C@H]1CSCc2cc(CSCCNC(=O)CN3CCN(CC(=O)O)CCN(CC(=O)O)CCN(CC(=O)O)CC3)cc(c2)CSC[C@@H](C(=O)O)NC(=O)[C@H](Cc2ccccc2)NC(=O)[C@H](CCC(N)=O)NC(=O)[C@H]([C@@H](C)O)NC(=O)[C@@H]2C[C@@H](F)CN2C(=O)[C@@H]2CCCN2C(=O)C(C)(C)NC1=O [DOTA-12] (Hexanoyl-C[Aib]P[Pro(trans-4-F)]TQFC-OH; linker 1-8 via TBMB(SCH2CH2NH-DOTA)) here?
A: 1.08 nM

Q: For CCCCCC(=O)N[C@H]1CSCc2cc(CSCCNC(=O)CN3CCN(CC(=O)O)CCN(CC(=O)O)CCN(CC(=O)O)CC3)cc(c2)CSC[C@@H](C(=O)O)NC(=O)[C@H](Cc2ccccc2F)NC(=O)[C@H](CCC(N)=O)NC(=O)[C@H]([C@@H](C)O)NC(=O)[C@@H]2C[C@@H](F)CN2C(=O)[C@@H]2CCCN2C(=O)C(C)(C)NC1=O [DOTA-13] (Hexanoyl-C[Aib]P[Pro(trans-4-F)]TQ[Phe(2-F)]C-OH; linker 1-8 via TBMB(SCH2CH2NH-DOTA)), which IC50 (FAPα) is on record?
A: 1.09 nM

Q: For CCCCCC(=O)N[C@H]1CSCc2cc(CSCCNC(=O)CN3CCN(CC(=O)O)CCN(CC(=O)O)CCN(CC(=O)O)CC3)cc(c2)CSC[C@@H](C(=O)O)NC(=O)[C@H](Cc2ccccc2)NC(=O)[C@H](CCC(N)=O)NC(=O)[C@H]([C@@H](C)O)NC(=O)[C@@H]2CCCN2C(=O)[C@@H]2CCCN2C1=O [FAP-2286, reference compound], which IC50 (FAPα) is on record?
A: 11.7 nM

Q: For CCCCCC(=O)N[C@H]1CSCc2cc(CSCCNC(=O)CN3CCN(CC(=O)O)CCN(CC(=O)O)CC3)cc(c2)CSC[C@@H](C(=O)O)NC(=O)[C@H](Cc2ccccc2)NC(=O)[C@H](CCC(N)=O)NC(=O)[C@H]([C@@H](C)O)NC(=O)[C@@H]2C[C@@H](O)CN2C(=O)[C@@H]2CCCN2C(=O)C(C)(C)NC1=O [NOTA-05] (Hexanoyl-C[Aib]P[Hyp]TQFC-OH; linker 1-8 via X1), which IC50 (FAPα) is on record?
A: 0.45 nM

Q: Which IC50 (FAPα) does the source give for CCCCCC(=O)N[C@H]1CSCc2cc(CSCCNC(=O)CN3CCN(CC(=O)O)CCN(CC(=O)O)CC3)cc(c2)CSC[C@@H](C(=O)O)NC(=O)[C@H](Cc2ccccc2F)NC(=O)[C@H](CCC(N)=O)NC(=O)[C@H]([C@@H](C)O)NC(=O)[C@@H]2C[C@@H](O)CN2C(=O)[C@@H]2CCCN2C(=O)C(C)(C)NC1=O [NOTA-06] (Hexanoyl-C[Aib]P[Hyp]TQ[Phe(2-F)]C-OH; linker 1-8 via X1) here?
A: 0.088 nM

Q: Which IC50 (FAPα) does the source give for CCCCCC(=O)N[C@H]1CSCc2cc(CSCCNC(=O)CN3CCN(CC(=O)O)CCN(CC(=O)O)CC3)cc(c2)CSC[C@@H](C(=O)O)NC(=O)[C@H](Cc2ccccc2)NC(=O)[C@H](CCC(N)=O)NC(=O)[C@H]([C@@H](C)O)NC(=O)[C@@H]2CCCN2C(=O)[C@@H]2CCCN2C1=O [NOTA-2286, reference compound] here?
A: 0.59 nM

Q: For CCCCCC(=O)N[C@H]1CSCc2cc(CSCCNC(=O)CN3CCN(CC(=O)O)CCN(CC(=O)O)CCN(CC(=O)O)CC3)cc(c2)CSC[C@@H](C(=O)O)NC(=O)[C@H](Cc2ccccc2C(F)(F)F)NC(=O)[C@H](CCC(N)=O)NC(=O)[C@H]([C@@H](C)O)NC(=O)[C@@H]2C[C@@H](O)CN2C(=O)[C@@H]2CCCN2C(=O)C(C)(C)NC1=O [^68Ga-DOTA-09, metal not drawn] (Hexanoyl-C[Aib]P[Hyp]TQ[Phe(2-CF3)]C-OH; linker 1-8 via TBMB(SCH2CH2NH-DOTA)), which “tumour uptake compared with control” value (U-87 MG cells) is on record?
A: significantly higher

Q: And the “tumour/kidney ratio compared with control” value (U-87 MG cells)?
A: significantly higher

Q: And the “tumour/kidney uptake ratio compared with control” value (U-87 MG cells)?
A: significantly higher

Q: What about the tissue to tissue ratio at 0.5 h (in vivo) of the same compound?
A: 2.81 ± 0.21

Q: What about the tissue to tissue ratio at 1.5 h (in vivo) of the same compound?
A: 5.34 ± 0.92

Q: Which results are given for CCCCCC(=O)N[C@H]1CSCc2cc(CSCCNC(=O)CN3CCN(CC(=O)O)CCN(CC(=O)O)CCN(CC(=O)O)CC3)cc(c2)CSC[C@@H](C(=O)O)NC(=O)[C@H](Cc2ccccc2)NC(=O)[C@H](CCC(N)=O)NC(=O)[C@H]([C@@H](C)O)NC(=O)[C@@H]2CCCN2C(=O)[C@@H]2CCCN2C1=O [^68Ga-FAP-2286, metal not drawn]?
A: tissue to tissue ratio at 1 h (in vivo): 1.56 ± 0.11; tissue to tissue ratio at 3 h (in vivo): 0.87 ± 0.14

Q: Which Tumour/kidney (U-87 MG cells; 1.5 h) does the source give for CCCCCC(=O)N[C@H]1CSCc2cc(CSCCNC(=O)CN3CCN(CC(=O)O)CCN(CC(=O)O)CC3)cc(c2)CSC[C@@H](C(=O)O)NC(=O)[C@H](Cc2ccccc2)NC(=O)[C@H](CCC(N)=O)NC(=O)[C@H]([C@@H](C)O)NC(=O)[C@@H]2CCCN2C(=O)[C@@H]2CCCN2C1=O [^68Ga-NOTA-2286, metal not drawn, reference compound] here?
A: 1.77±0.31

Q: And the Tumour/kidney (U-87 MG cells; 3 h)?
A: 2.43±1.04

Q: And the tissue to tissue ratio at 0.5 h (in vivo)?
A: 1.59 ± 0.55

— patent EP4745151A1, “FIBROBLAST ACTIVATION PROTEIN LIGAND AND USE THEREOF” (Jiangsu Hengrui Pharmaceuticals Co., Ltd., priority 2023, dated 2025)
